Activity calls are given as the source filed them. No cut-off for these calls is given here.

We go through 18 compounds from ChEMBL document CHEMBL4834406, “Isolation, Structure Elucidation, Semi-Synthesis, and Structural Modification of C19-Diterpenoid Alkaloids from Aconitum apetalum and Their Neuroprotective Activities” (J Nat Prod, 2021).

Data set [1] deals with SH-SY5Y. As to the kind of experiment: Neuroprotective activity against H2O2-induced human SH-SY5Y cell damage assessed as protective rate at 50 uM pretreated for 1 hr followed by H2O2 addition measured after 4 hrs by MTT assay (reference value: 68.2 +/- 1.34%). As to conditions: time 5 hrs. The data set is classed as functional.
Data set [2] concerns SH-SY5Y. Description: Cytotoxicity against H2O2 induced human neuroblastoma SH-SY5Y cells assessed as cell viability measured after 5 hrs by MTT assay. The data set is classed as cell-based. On the technique in general: Formazan colour is commonly taken as a measure of viable cells.
The test system of data set [3] is SH-SY5Y. As to the kind of experiment: Inhibition of ROS production in H2O2-induced human SH-SY5Y cells at 50 uM pretreated for 1 hr followed by H2O2 addition measured after 4 hrs by DCFH-DA based flow cytometry. The data set is classed as functional, cell-based. Particulars: time 5.0 hrs.
The test system of data set [4] is SH-SY5Y. As to the kind of experiment: Neuroprotective activity against H2O2-induced human SH-SY5Y cell death assessed as early apoptotic cells at 50 uM measured by Annexin V/PI double staining base flow cytometry analysis (reference value: 15.23%). The data set is classed as functional, cell-based. Background: In flow cytometry, cells or beads pass a laser one at a time.

For data set [5], the system named is SH-SY5Y. As to the kind of experiment: Neuroprotective activity against H2O2-induced human SH-SY5Y cell death assessed as necrotic cells at 50 uM measured by Annexin V/PI double staining base flow cytometry analysis (reference value: 0.32%). The data set is classed as functional, cell-based.
Data set [6] has as its system SH-SY5Y. As to the kind of experiment: Neuroprotective activity against H2O2-induced human SH-SY5Y cell apoptosis assessed as Bax protein expression at 50 uM measured by Western blot analysis relative to control. The data set is classed as functional, cell-based. A general note: A western blot detects proteins with antibodies after separation by electrophoresis.
Data set [7] has as its system SH-SY5Y. Description: Neuroprotective activity against H2O2-induced human SH-SY5Y cell death assessed as reversal of apoptosis at 50 uM pretreated for 1 hr followed by H2O2 addition measured after 4 hrs by Hoechst 33258 based fluorescence microscopy. The data set is classed as functional. As to conditions: time 5.0 hrs.
For data set [8], the system named is SH-SY5Y. Description: Neuroprotective activity against H2O2-induced human SH-SY5Y cell death assessed as late apoptotic cells at 50 uM measured by Annexin V/PI double staining base flow cytometry analysis (reference value: 7.78%). The data set is classed as functional, cell-based.
Data set [9] deals with SH-SY5Y. Description: Neuroprotective activity against H2O2-induced human SH-SY5Y cell apoptosis assessed as caspase 3 protein expression at 50 uM measured by Western blot analysis relative to control. The data set is classed as functional, cell-based.
Data set [10] concerns SH-SY5Y. Description: Neuroprotective activity against H2O2-induced human SH-SY5Y cell apoptosis assessed as PARP protein expression at 50 uM measured by Western blot analysis relative to control. The data set is classed as functional, cell-based.
Data set [11] deals with SH-SY5Y. Description: Neuroprotective activity against H2O2-induced human SH-SY5Y cell death assessed as viable cells at 50 uM measured by Annexin V/PI double staining base flow cytometry analysis (reference value: 76.67%). The data set is classed as functional. As to conditions: read-out: Activity.
The test system of data set [12] is SH-SY5Y. As to the kind of experiment: Neuroprotective activity against H2O2-induced human SH-SY5Y cell apoptosis assessed as Bcl-2 protein expression at 50 uM measured by Western blot analysis relative to control. The data set is classed as functional, cell-based.

For the compound `CCN1C[C@]2(COC(=O)c3ccccc3NC(=O)c3ccccc3NC(C)=O)CC[C@H](OC)C34C1C(C[C@@H]32)[C@@]1(O)C[C@H](OC)C2C[C@@H]4[C@@H]1[C@H]2OC(=O)c1ccccc1NC(=O)c1ccccc1NC(C)=O`, the figures for the Activity in the data set on SH-SY5Y [1] and with SH-SY5Y [2] were 19.9% and “Non-Toxic”, respectively.

On to `CCN1C[C@]2(COC(=O)c3ccccc3NC(=O)c3ccccc3NC(=O)CCCCl)CC[C@H](OC)C34C1C(C[C@@H]32)[C@@]1(O)C[C@H](OC)C2C[C@@H]4[C@@H]1[C@H]2O`, for which the Activity with SH-SY5Y [1] is 15.6%; with SH-SY5Y [2] it was “Non-Toxic”.

On to `CCN1C[C@]2(COC(=O)c3ccccc3NC(=O)c3ccccc3NC(=O)C(C)(C)O)CC[C@H](OC)C34C1C(C[C@@H]32)[C@@]1(OC(C)=O)C[C@H](OC)C2C[C@@H]4[C@@H]1[C@H]2OC(C)=O`, for which the figures for the Activity with SH-SY5Y [1] and in the data set on SH-SY5Y [2] were 54.2% and “Non-Toxic”, respectively.

For `CCCCC(=O)Nc1ccccc1C(=O)Nc1ccccc1C(=O)OC[C@@]12CC[C@H](OC)C34C(C(C[C@@H]31)[C@@]1(O)C[C@H](OC)C3C[C@@H]4[C@@H]1[C@H]3O)N(CC)C2`, the values for the Activity with SH-SY5Y [1] and with SH-SY5Y [2] were 11.7% and “Non-Toxic”, respectively.

For the compound `CCCCC(CC)C(=O)Nc1ccccc1C(=O)Nc1ccccc1C(=O)OC[C@@]12CC[C@H](OC)C34C(C(C[C@@H]31)[C@@]1(O)C[C@H](OC)C3C[C@@H]4[C@@H]1[C@H]3O)N(CC)C2` (stereo partly specified), the Activity in the data set with SH-SY5Y [1] is 6.5%; with SH-SY5Y [2], “Non-Toxic”.

As for `CCN1C[C@]2(COC(=O)c3ccccc3NC(=O)c3ccccc3NC(=O)CC(C)C)CC[C@H](OC)C34C1C(C[C@@H]32)[C@@]1(O)C[C@H](OC)C2C[C@@H]4[C@@H]1[C@H]2OC(=O)c1ccccc1NC(=O)c1ccccc1NC(=O)CC(C)C`, the Activity is 13% with SH-SY5Y [1] and “Non-Toxic” in the data set with SH-SY5Y [2].

In the case of `CCCCCC(=O)Nc1ccccc1C(=O)Nc1ccccc1C(=O)OC[C@@]12CC[C@H](OC)C34C(C(C[C@@H]31)[C@@]1(O)C[C@H](OC)C3C[C@@H]4[C@@H]1[C@H]3O)N(CC)C2`, the results for the Activity in the data set on SH-SY5Y [1] and with SH-SY5Y [2] were 22.5% and “Non-Toxic”, respectively.

Regarding `CCN1C[C@]2(COC(=O)c3ccccc3NC(=O)c3ccccc3NC(=O)C(C)(C)O)CC[C@H](OC)C34C1C(C[C@@H]32)[C@@]1(O)C[C@H](OC)C2C[C@@H]4[C@@H]1[C@H]2OC(C)=O`, the Activity was 48.6% in the data set with SH-SY5Y [1] and “Non-Toxic” with SH-SY5Y [2].

In the case of `CCCCC(=O)Nc1ccccc1C(=O)Nc1ccccc1C(=O)OC[C@@]12CC[C@H](OC)C34C(C(C[C@@H]31)[C@@]1(O)C[C@H](OC)C3C[C@@H]4[C@@H]1[C@H]3OC(=O)c1ccccc1NC(=O)c1ccccc1NC(=O)CCCC)N(CC)C2`, the values for the Activity with SH-SY5Y [1] and in the data set with SH-SY5Y [2] were 33% and “Non-Toxic”, respectively.

For the compound `CCO[C@]12C[C@H](OC)C3C[C@H]([C@@H]1[C@H]3O)C13C4C2C[C@@H]1[C@@](COC(=O)c1ccccc1NC(=O)c1ccccc1NC(=O)C(C)(C)O)(CC[C@@H]3OC)CN4CC`, the figures for the Activity with SH-SY5Y [1] and in the data set with SH-SY5Y [2] were 58.6% and “Non-Toxic”, respectively.

For the compound `CCN1C[C@]2(COC(=O)c3ccccc3NC(=O)c3ccccc3NC(=O)C(C)(C)O)CC[C@H](OC)C34C1C(C[C@@H]32)[C@@]1(O)C[C@H](OC)C2C[C@@H]4[C@@H]1[C@H]2OC(=O)c1ccccc1NC(=O)c1ccccc1NC(=O)C(C)(C)O`, the results for the Activity in the data set on SH-SY5Y [1] and in the data set on SH-SY5Y [2] were 12.4% and “Non-Toxic”, respectively.

Take `CCN1C[C@]2(COC(=O)c3ccccc3NC(=O)c3ccccc3NC(=O)C(Cl)(Cl)Cl)CC[C@H](OC)C34C1C(C[C@@H]32)[C@@]1(O)C[C@H](OC)C2C[C@@H]4[C@@H]1[C@H]2O`: the Activity in the data set with SH-SY5Y [1] is recorded as 14.5%; with SH-SY5Y [2], “Non-Toxic”.

Consider `CCCC(=O)Nc1ccccc1C(=O)Nc1ccccc1C(=O)OC[C@@]12CC[C@H](OC)C34C(C(C[C@@H]31)[C@@]1(O)C[C@H](OC)C3C[C@@H]4[C@@H]1[C@H]3OC(=O)c1ccccc1NC(=O)c1ccccc1NC(=O)CCC)N(CC)C2`, for which the Activity with SH-SY5Y [1] is listed as 21.3%; in the data set on SH-SY5Y [2] it was “Non-Toxic”.

Take `CCN1C[C@]2(COC(=O)c3ccccc3NC(=O)c3ccccc3NC(=O)C(C)(O)CC)CC[C@H](OC)C34C1C(C[C@@H]32)[C@@]1(O)C[C@H](OC)C2C[C@@H]4[C@@H]1[C@H]2OC(C)=O` (stereo partly specified): the Activity in the data set on SH-SY5Y [1] was 62.1%; in the data set on SH-SY5Y [2], “Non-Toxic”.

For `CCN1C[C@]2(COC(=O)c3ccccc3NC(=O)c3ccccc3NC(=O)C(C)Cl)CC[C@H](OC)C34C1C(C[C@@H]32)[C@@]1(O)C[C@H](OC)C2C[C@@H]4[C@@H]1[C@H]2O` (stereo partly specified), the Activity was 2.2% in the data set on SH-SY5Y [1] and “Non-Toxic” in the data set with SH-SY5Y [2].

In the case of `CCN1C[C@]2(COC(=O)c3ccccc3NC(=O)c3ccccc3NC(=O)C(C)C)CC[C@H](OC)C34C1C(C[C@@H]32)[C@@]1(O)C[C@H](OC)C2C[C@@H]4[C@@H]1[C@H]2OC(=O)c1ccccc1NC(=O)c1ccccc1NC(=O)C(C)C`, the Activity is 5.5% with SH-SY5Y [1] and “Non-Toxic” in the data set with SH-SY5Y [2].

As for `CCN1C[C@]2(COC(=O)c3ccccc3NC(=O)c3ccccc3NC(=O)c3ccccc3)CC[C@H](OC)C34C1C(C[C@@H]32)[C@@]1(O)C[C@H](OC)C2C[C@@H]4[C@@H]1[C@H]2OC(=O)c1ccccc1NC(=O)c1ccccc1NC(=O)c1ccccc1`, the Activity in the data set on SH-SY5Y [1] is 10.8%; in the data set with SH-SY5Y [2], “Non-Toxic”.

In the case of `CCN1C[C@]2(COC(=O)c3ccccc3NC(=O)c3ccccc3NC(=O)C(C)(C)O)CC[C@H](OC)C34C1C(C[C@@H]32)[C@@]1(O)C[C@H](OC)C2C[C@@H]4[C@@H]1[C@H]2O`, the Activity is 77.4% with SH-SY5Y [1] and “Non-Toxic” in the data set with SH-SY5Y [2]. Besides, in the data set on SH-SY5Y [3], the inhibition entry is “Active”. The result in the data set on SH-SY5Y [4], in the data set with SH-SY5Y [5], in the data set with SH-SY5Y [6], with SH-SY5Y [7], in the data set on SH-SY5Y [8] and with SH-SY5Y [9] was Active. For the same compound, the result with SH-SY5Y [10] and in the data set on SH-SY5Y [12] was Active. The viability at 50 µM in the data set with SH-SY5Y [11] came out at 89.2%.
